Results on 22 molecules are retold here after US20260242360A1, “Novel Compound, and Pharmaceutical Composition for Prevention or Treatment of Cancer or Tumors Comprising Same” (Daewoong Pharmaceutical Co., Ltd., priority 2023, published 2026).

Some results are limits rather than exact numbers.

What all share (format): cell-based
In one assay the test system is NCI-H226 cells. In words: Cell growth inhibition test (CellTiter-Glo), NCI-H226. As to conditions: Homo sapiens, NCI-H226 cell line. The method, then:
(§1) The cell growth for the compounds prepared in Examples was measured by CellTiter-Glo® Luminescednt Cell Viability (Promega, Catalog #G7571) method using NCI-H226 (addexbio), NCI-H28 (Korea Cell Line Bank) cell lines. This evaluation method is a method in which when luciferase enzyme is activated by ATP flowing out from living cells, it reacts with a luciferin substrate, and the enzyme activity at this time is measured to confirm cell viability.
(§2) Specifically, NCI-H226, and NCI-H28 cells were prepared in 100 μL of cell culture medium (RPMI medium, 10% FBS, 1% P/S, 4.5 g/L D-Glucose, 2.383 g/L HEPES Buffer, L-Glutamine, 1.5 g/L Sodium Bicarbonate, 110 mg/L Sodium pyruvate) in a white clear bottom 96-well microplate. The prepared plate was incubated in a 5% CO2 incubator at 37° C. for 24 hours, and then the previously prepared compounds of Examples were finally treated at concentrations of 0.0005, 0.005, 0.05, 0.5 and 5 μM, which was repeated three times for all treatment solutions.
(§3) The plates treated with the compounds of Examples were incubated in a 5% CO2 incubator at 37° C. 100 μL/well of the substrate aqueous solution containing luciferin was added to a white clear-bottom 96 well microplate, thereby initiating an enzyme reaction. The reaction was performed at room temperature in the dark for 10 minutes, and the luminescence was measured using a Flexstation3 multi-mode microplate reader. In accordance with the instructions for the CellTiter-Glo™ Luminescednt Cell Viability, the luciferase enzyme activity, which represents the amount of ATP, was measured by a chemiluminescence method, and the inhibitory activity of the compounds according to the present disclosure was calculated. The results of each compound were analyzed using Microsoft Excel, and the IC50 values were calculated using GraphPad Prism software.
For orientation: ATP-based viability assays read luminescence as a measure of living cells.

Assay [1] has as its system transcription factor TEAD. In words: Activity inhibition test of transcription factor TEAD (ONE-Glo luciferase assay, Hippo Pathway TEAD reporter-MCF7 cell line). As to conditions: Homo sapiens; TEAD Reporter-MCF7 cells, 24 hours treatment, luciferase luminescence. Here is the method: The transcription factor TEAD activity of the compounds prepared in Examples was measured by the ONE-Glo™ Luciferase assay (Promega, Catalog #E6110) method using the Hippo Pathway TEAD reporter-MCF7 recombinant cell line (BPS Bioscience, Catalog #60618).
Specifically, the TEAD Reporter-MCF7 cell line contains the firefly luciferase gene whose expression is regulated under the control of TEAD response elements in the MCF7, which is a human breast cancer cell line. In the cell line, a non-phosphorylated YAP/TAZ exists in the nucleus in a non-stressed condition, which continuously induces expression of the luciferase reporter.
TEAD Reporter-MCF7 cells were prepared in 100 μL of cell culture medium (MEM medium, 10% FBS, 1% P/S, 400 μg/mL Geneticin, 1% […], 1 mM NA pyruvate, 10 μg/mL Insulin) in a white clear bottom 96-well microplate. The prepared plate was incubated in a 5% CO2 incubator at 37° C. for 24 hours, and then the previously prepared compounds of Examples were finally treated at concentrations of 0.0005, 0.005, 0.05, 0.5 and 5 μM, which were repeated three times for all treatment solutions. The plates treated with the compounds of Examples were incubated in a 5% CO2 incubator at 37° C. for 24 hours. 100 μL/well of the substrate aqueous solution containing luciferin was added to a white clear-bottom 96 well microplate, thereby initiating an enzyme reaction. The reaction was performed at room temperature for 5 minutes, and the luminescence (integration time 1000 ms) was measured using a Flexstation3 multi-mode microplate reader. In accordance with the instructions for the ONE-Glo™ Luciferase Assay, the luciferase enzyme activity, which represents the activity of the transcription factor TEAD, was measured by a chemiluminescence method, and the inhibitory activity of the compound according to the present disclosure was calculated. The results of each compound were analyzed using Microsoft Excel, and the IC50 values were calculated by GraphPad Prism software.

The next assay relates to NCI-H28 cells. Nature of the assay: Cell growth inhibition test (CellTiter-Glo), NCI-H28. As to conditions: Homo sapiens, NCI-H28 cell line. The method, then: as §1, §2, §3

What is called IC50 is the concentration needed to halve the response being measured. A high value points to weaker potency in that assay.

As for `C=CC(=O)Nc1cc(-c2cn(C)cn2)c2[nH]c(-c3ccc(Cl)cc3)cc2c1` [Example 1, N-(2-(4-chlorophenyl)-7-(1-methyl-1H-imidazol-4-yl)-1H-indol-5-yl)acrylamide], the values for the 50% inhibitory concentration (IC50) (in the assay with NCI-H226 cells; in assay [1]; in the assay on NCI-H28 cells) were 21 nM, 9.4 nM and over 5000 nM, respectively.

Take `C=CC(=O)Nc1cc(-c2cn(C)cn2)c2[nH]c(-c3ccc(C(F)(F)F)cc3)cc2c1` [Example 2, N-(7-(1-methyl-1H-imidazol-4-yl)-2-(4-(trifluoromethyl)phenyl)-1H-indol-5-yl)acrylamide]: the results for the concentration for half-maximal inhibition (IC50) (in the assay with NCI-H226 cells; in assay [1]; with NCI-H28 cells) were 65 nM, 39 nM and 4140 nM, respectively.

Take `C=CC(=O)Nc1cc(-c2cn(C)cn2)c2[nH]c(-c3ccc(F)cc3)cc2c1` [Example 3, N-(2-(4-fluorophenyl)-7-(1-methyl-1H-imidazol-4-yl)-1H-indol-5-yl)acrylamide]: the IC50 with NCI-H226 cells was found to be 2.5 nM; in assay [1], 3.5 nM; with NCI-H28 cells, 1530 nM.

In the case of `C=CC(=O)Nc1cc(-c2cn(C)cn2)c2[nH]c(-c3ccccc3)cc2c1` [Example 4, N-(7-(1-methyl-1H-imidazol-4-yl)-2-phenyl-1H-indol-5-yl)acrylamide], the IC50 was found to be 10 nM in the assay on NCI-H226 cells, 30 nM in assay [1] and 4400 nM with NCI-H28 cells.

Consider `C=CC(=O)Nc1cc(-c2cn(C)cn2)c2[nH]c(-c3ccc(F)cc3F)cc2c1` [Example 5, N-(2-(2,4-difluorophenyl)-7-(1-methyl-1H-imidazol-4-yl)-1H-indol-5-yl)acrylamide], for which the figures for the half-inhibitory concentration (IC50) (in the assay on NCI-H226 cells; in assay [1]; in the assay with NCI-H28 cells) were 4.2 nM, 6.4 nM and over 5000 nM, respectively.

As for `C=CC(=O)Nc1cc(-c2cn(C)cn2)c2[nH]c(-c3cc(F)c(F)c(F)c3)cc2c1` [Example 6, N-(7-(1-methyl-1H-imidazol-4-yl)-2-(3,4,5-trifluorophenyl)-1H-indol-5-yl)acrylamide], the concentration for half-maximal inhibition (IC50) in the assay on NCI-H226 cells came out at 4.4 nM; in assay [1], 5.9 nM; in the assay with NCI-H28 cells, 4000 nM.

Regarding `C=CC(=O)Nc1cc(-c2cn(C)cn2)c2[nH]c(-c3ccc(Cl)c(Cl)c3)cc2c1` [Example 8, N-(2-(3,4-dichlorophenyl)-7-(1-methyl-1H-imidazol-4-yl)-1H-indol-5-yl)acrylamide], the IC50 amounted to 57 nM in the assay with NCI-H226 cells, 110 nM in assay [1] and 950 nM in the assay with NCI-H28 cells.

Consider `C=CC(=O)Nc1cc(-c2cn(C)cn2)c2[nH]c(-c3ccc(F)c(F)c3)cc2c1` [Example 9, N-(2-(3,4-difluorophenyl)-7-(1-methyl-1H-imidazol-4-yl)-1H-indol-5-yl)acrylamide], for which the half-inhibitory concentration (IC50) in the assay with NCI-H226 cells came to 5.3 nM; in assay [1], 20 nM; in the assay with NCI-H28 cells, 2950 nM.

Regarding `C=CC(=O)Nc1cc(-c2cn(C)cn2)c2[nH]c(-c3cccc(Cl)c3)cc2c1` [Example 10, N-(2-(3-chlorophenyl)-7-(1-methyl-1H-imidazol-4-yl)-1H-indol-5-yl)acrylamide], the IC50 came to 20 nM in the assay on NCI-H226 cells, 60 nM in assay [1] and 2470 nM in the assay on NCI-H28 cells.

Consider `C=CC(=O)Nc1cc(-c2cn(C)cn2)c2[nH]c(-c3ccc(Cl)cc3F)cc2c1` [Example 12, N-(2-(4-chloro-2-fluorophenyl)-7-(1-methyl-1H-imidazol-4-yl)-1H-indol-5-yl)acrylamide], for which the IC50 with NCI-H226 cells turned out to be 22.5 nM; in assay [1], 79 nM; with NCI-H28 cells, 2800 nM.

With `C=CC(=O)Nc1cc(-c2cn(C)cn2)c2[nH]c(C3=CCCCC3)cc2c1` [Example 13, N-(2-cyclohexenyl-7-(1-methyl-1H-imidazol-4-yl)-1H-indol-5-yl)acrylamide], the IC50 came out at 22.3 nM in the assay on NCI-H226 cells, 46 nM in assay [1] and 3500 nM with NCI-H28 cells.

As for `C=CC(=O)Nc1cc(-c2cn(C)cn2)c2[nH]c(-c3ccc(F)c(C)c3)cc2c1` [Example 14, N-(2-(4-fluoro-3-methylphenyl)-7-(1-methyl-1H-imidazol-4-yl)-1H-indol-5-yl)acrylamide], the IC50 with NCI-H226 cells was found to be 25.1 nM; in assay [1], 49 nM; with NCI-H28 cells it was 2300 nM.

In the case of `Cn1cnc(-c2cc(NS(C)(=O)=O)cc3cc(-c4cccc(C(F)(F)F)c4)[nH]c23)c1` [Example 19, N-(7-(1-methyl-1H-imidazol-4-yl)-2-(3-(trifluoromethyl)phenyl)-1H-indol-5-yl)methanesulfonamide], the figures for the IC50 (in the assay on NCI-H226 cells; in assay [1]; in the assay with NCI-H28 cells) were 210 nM, 190 nM and 438 nM, respectively.

For `Cn1cnc(-c2cc(NS(C)(=O)=O)cc3cc(-c4ccc(Cl)cc4)[nH]c23)c1` [Example 21, N-(2-(4-chlorophenyl)-7-(1-methyl-1H-imidazol-4-yl)-1H-indol-5-yl)methanesulfonamide], the half-inhibitory concentration (IC50) in the assay on NCI-H226 cells was over 5000 nM; in assay [1] it was 236 nM; in the assay on NCI-H28 cells, 2220 nM.

Consider `C=CC(=O)Nc1cc(-c2ccn(C)n2)c2[nH]c(-c3ccc(Cl)cc3)cc2c1` [Example 28, N-(2-(4-chlorophenyl)-7-(1-methyl-1H-pyrazol-3-yl)-1H-indol-5-yl)acrylamide], for which the IC50 was determined as 8.4 nM in the assay with NCI-H226 cells, 15 nM in assay [1] and 2300 nM in the assay with NCI-H28 cells.

`C=CC(=O)Nc1cc(-c2ccccn2)c2[nH]c(-c3ccc(Cl)c(Cl)c3)cc2c1` [Example 30, N-(2-(3,4-dichlorophenyl)-7-(pyridin-2-yl)-1H-indol-5-yl)acrylamide]: the 50% inhibitory concentration (IC50) was found to be 339 nM in the assay with NCI-H226 cells, 126 nM in assay [1] and 553 nM in the assay on NCI-H28 cells.

As for `C=CC(=O)Nc1cc(-c2ccccn2)c2[nH]c(-c3ccc(F)cc3)cc2c1` [Example 31, N-(2-(4-fluorophenyl)-7-(pyridin-2-yl)-1H-indol-5-yl)acrylamide], the IC50 with NCI-H226 cells was found to be 12 nM; in assay [1] it was 30 nM; in the assay with NCI-H28 cells, 1770 nM.

`C=CC(=O)Nc1cc(-c2ccn(C)n2)c2[nH]c(-c3ccc(F)cc3)cc2c1` [Example 32, N-(2-(4-fluorophenyl)-7-(1-methyl-1H-pyrazol-3-yl)-1H-indol-5-yl)acrylamide]: the IC50 with NCI-H226 cells came to 7.6 nM; in assay [1], 23 nM; in the assay with NCI-H28 cells, 1360 nM.

Take `C=CC(=O)Nc1cc(-c2ccn(C)n2)c2[nH]c(-c3ccc(F)cc3F)cc2c1` [Example 33, N-(2-(2,4-difluorophenyl)-7-(1-methyl-1H-pyrazol-3-yl)-1H-indol-5-yl)acrylamide]: the values for the half-maximal inhibitory concentration (IC50) (with NCI-H226 cells; in assay [1]; in the assay on NCI-H28 cells) were 24.3 nM, 51 nM and 4910 nM, respectively.

For `Cn1cnc(-c2cc(C(=O)O)cc3cc(-c4ccc(F)cc4)[nH]c23)c1` [Example 35, 2-(4-fluorophenyl)-7-(1-methyl-1H-imidazol-4-yl)-1H-indole-5-carboxylic acid], the half-maximal inhibitory concentration (IC50) in the assay with NCI-H226 cells is 137 nM; in assay [1], 100 nM; in the assay on NCI-H28 cells, over 5000 nM.

As for `Cn1cnc(-c2cc(C(=O)O)cc3cc(-c4ccc(Cl)cc4)[nH]c23)c1` [Example 37, 2-(4-chlorophenyl)-7-(1-methyl-1H-imidazol-4-yl)-1H-indole-5-carboxylic acid], the results for the IC50 (in the assay with NCI-H226 cells; in assay [1]; in the assay with NCI-H28 cells) were 134 nM, 26 nM and 759 nM, respectively.

In the case of `Cn1cnc(-c2cc(C(=O)O)cc3cc(-c4ccc(Cl)c(F)c4)[nH]c23)c1` [Example 39, 2-(4-chloro-3-fluorophenyl)-7-(1-methyl-1H-imidazol-4-yl)-1H-indole-5-carboxylic acid], the concentration for half-maximal inhibition (IC50) in the assay on NCI-H226 cells was 21.9 nM; in assay [1] it was 36 nM; in the assay with NCI-H28 cells it was over 5000 nM.
